Measured values as given in US12540142B2, “Method for evaluating quality of (3S)-3-(4-(3-(1,4-dioxaspiro[4,5]dec-7-en-8-yl)benzyloxy)phenyl)hex-4-inoic acid” (Hyundai Pharm Co., Ltd., priority 2020, dated 2026).
pEC50: −log10 of the molar value.

Assays:
[1] = Related substance analysis by HPLC after refrigerated storage for about 2 years; assay type: physicochemical; settings: substance stored under refrigerated conditions (5° C.±3° C.) for about 2 years; for Area %: HPLC 220 nm
Protocol: About 35 mg of a (3S)-3-(4-(3-(1,4-dioxaspiro[4,5]dec-7-en yl)benzyloxy)phenyl)hex-4-inoic acid-containing substance stored under refrigerated conditions (5° C.±3° C.) for about 2 years was accurately weighed and put into a 50-ml volume flask, a diluent was added to the flask at about ⅔ of the volume, and the resulting mixture was mixed well. Thereafter, a related substance was analyzed using HPLC (Agilent Technologies 1200 Series).
<HPLC conditions> Operation Parameters
Column: Kinetex EVO C18, 5 um, 4.6×250 mm
Column temperature: 25° C.
Sample concentration: 0.7 mg/ml
Mobile Phase A: 0.01 M K2HPO4 (pH 7)

[2] = Stress sample with oxidant (3% hydrogen peroxide), related substance analysis by HPLC; assay type: physicochemical; settings: 3% hydrogen peroxide solution, room temperature, 24 hours; HPLC as in Example 1
Protocol: A stress sample stressed using an oxidant was prepared to confirm the production of the related substance. About 35 mg of a (3S)-3-(4-(3-(1,4-dioxaspiro[4,5]dec-7-en-8-yl)benzyloxy)phenyl)hex-4-inoic acid-containing substance stored under refrigerated conditions (5° C.±3° C.) for about 2 years was accurately weighed and put into a 50-ml volume flask. A diluent was added to the flask at about ⅔ of the volume, and the resulting mixture was mixed well. After 2 ml of a 3% hydrogen peroxide solution was added thereto, the resulting mixture was mixed well and marked with a diluent. The stress sample was left to stand at room temperature, and 24 hours later, the related substance was analyzed using HPLC (Agilent Technologies 1200 Series). The related substance was analyzed under the same conditions as in Example 1. As a result, it was confirmed that the related substance was produced from the stress sample (RRT 0.93, Area 3.83%). A comparison of the HPLC data of both samples using the sample of Example 1 as a control is shown in FIG. 4 (blue: control, green: stress sample). It was confirmed that the production of the related substance of Chemical Formula 2 in the stress sample was increased compared to the control.

[3] = research project title; no test described; cited from earlier work
[4] = research project title; no test described; cited from earlier work; remark: listed apart in the source

Compound	Area % [1] [%]	Area % of related substance (RRT: 0.93) ([1]; HPLC) [%]	Area of related substance produced (RRT 0.93) [2] [%]	pEC50 [3]	hypoglycemic effect (HbA1c) [4] [%]
CC#C[C@@H](CC(=O)O)c1ccc(OCc2cccc(C3=CCC4(CC3)OCCO4)c2)cc1 [Chemical Formula 1, (3S)-3-(4-(3-(1,4-dioxaspiro[4,5]dec-7-en-8-yl)benzyloxy)phenyl)hex-4-inoic acid]	98.9289				
CC#C[C@@H](CC(=O)O)c1ccc(OCc2cccc(C34CCC5(CC3O4)OCCO5)c2)cc1 (stereo partly drawn) [Chemical Formula 2, (3S)-3-(4-((3-(7-oxaspiro[bicyclo[4.1.0]heptane-3,2′-[1,3]dioxolan]-6-yl)benzyl)oxy)phenyl)hex-4-inoic acid]	0.2566	0.26	3.83		
CC#C[C@@H](CC(=O)O)c1ccc(OCc2cccc(C3=CCC4(CC3)OCCO4)c2)cc1 [HD-6277]				> 9.00	> 1
